# Like-named read-outs stand apart in the source and are kept apart here. *1 amine or outer side, *2 acyl side, *3 side chain or, on linkers, in order; H or OH if unused. Where a SMILES comes first, the peptide text is derived from it. Bridges are numbered along the chain shown (N, C = ends). Roman numbers before positions name the chains, in order. [ ]: non-standard residue; d: D form. Actinocin(9to1) = Cc1c2oc3c(C)ccc(C(=O)[*:1])c3nc-2c(C(=O)[*:2])c(N)c1=O; NMeV = CN[C@H](C(=O)O)C(C)C; Sar = CNCC(=O)O
# Assays:
# [1] = system: Mycobacterium smegmatis mc2155; test: Resazurin reduction growth inhibition assay, M. smegmatis; format: cell-based; settings: for IC50: Mycolicibacterium smegmatis, MC2155, growth inhibition, resazurin, means ± SEM of triplicates, read-out: IC50 against Mycobacterium smegmatis
# [2] = system: Mycobacterium bovis var BCG; test: organism not typed; format: cell-based; settings: for IC50: read-out: IC50 against Mycobacterium bovis var BCG
# [3] = system: Mycobacterium tuberculosis H37Rv; test: Resazurin reduction growth inhibition assay, M. tuberculosis H37Rv; format: cell-based; settings: for IC50: Mycobacterium tuberculosis, H37RV, read-out: IC50 against Mycobacterium tuberculosis H37Rv; for IC50 / IC50 against Mycobacterium tuberculosis H37Rv: means ± SEM of triplicates
# Bacillus subtilis = test: Antimicrobial spectrum assay, Bacillus subtilis; format: cell-based; settings: for IC50: Bacillus subtilis, read-out: IC50 against Bacillus subtilis
# Staphylococcus aureus = test: Antimicrobial spectrum assay, Staphylococcus aureus; format: cell-based; settings: for IC50: Staphylococcus aureus, read-out: IC50 against Staphylococcus aureus
# Salmonella enterica = test: Antimicrobial spectrum assay, Salmonella enterica; format: cell-based; settings: ND = no inhibition detected at maximum concentration tested (100 μg/mL)
# Shikimate kinase (MtSK) = target: T1, Shikimate kinase (MtSK) (Mycobacterium tuberculosis, UniProt P9WPY3); test: Recombinant MtSK inhibition, ADP coupling assay; format: biochemical, M. tuberculosis; settings: for IC50: read-out: Inhibition Concentration (IC50), MtSK (converted); for Ki: read-out: inhibition constant (Ki), MtSK (converted)
# T1 construct: made in house; host or cells: E. coli
# T1 sequence (P9WPY3 whole entry): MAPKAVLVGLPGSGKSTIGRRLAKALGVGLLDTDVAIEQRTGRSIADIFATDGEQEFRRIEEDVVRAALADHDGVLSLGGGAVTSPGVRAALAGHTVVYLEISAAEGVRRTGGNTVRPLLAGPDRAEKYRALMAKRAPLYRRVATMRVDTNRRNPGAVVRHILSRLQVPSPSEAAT
# Experimental: In this study, we conducted enzymatic assays to assess the inhibition of the pure compound isolated in this experiment. We also assayed control and standard drugs (rifampicin and actinomycin D). At this time, we focused on three essential enzymes in M. tuberculosis: Shikimate kinase (MtSK), phosphopantothenoylcysteine synthetase phosphopantothenoylcysteine decarboxylase (MtCoABC), and 5-enolpyruvylshikimate-3-phosphate synthase (MtEPSPS), based on docking results. All these enzymes were prepared as recombinant proteins expressed in E. coli (details not included in this study or unpublished data). For the MtSK inhibition assessment, we quantified the production of ADP in the reaction using a coupling assay, as previously described. In the case of MtCoABC and MtEPSPS inhibition, we employed a pyrophosphate assay with the BIOMOL® Green reagent (Enzo Life Sciences). All assays were conducted on a 96-well plate format, with each well having a final volume of 50 μL.
# [4] = Solubility of the purified compound in solvents; format: physicochemical; settings: qualitative
# in vitro = settings: human, DLD-1 colorectal adenocarcinoma cells
# Experimental: The cytotoxicity assay involved the evaluation of cytotoxic effects on human cells using the colorectal adenocarcinoma cell line (DLD-1). The DLD-1 cells were cultured in a 75 cm^2 flask (Violamo) at 37 °C, with Roswell Park Memorial Institute (RPMI 1640) medium supplemented with 10 % FBS, 2.1 mM stable Glutamine, and 2.0 g/L NaHCO3. DLD-1 cells in a semiconfluent state were detached from the flask by incubating them with 5 mL of RPMI 1640 containing 0.25 % trypsin-EDTA to conduct the assay. After detachment, the DLD-1 cells were resuspended in RPMI 1640 supplemented with FBS, L-glutamine, and NaHCO3, and their cell viability was assessed using 0.4 % Trypan blue on a hemocytometer. Approximately 100 μL of the cell suspension, containing 3,000 cells, was added to each well of a 96-well clear-bottom plate. Cells were dispensed into the wells containing 2 μL of compounds dissolved in 50 % DMSO (final compound concentrations: 100, 20, 4, 0.8, and 0.2 μM and final DMSO concentration was 1 % each well). The culture plate was then incubated at 37 °C under 5 % CO2. Following 48 h of cultivation, 10 μL of Cell Counting Kit 8 (Dojindo, Japan) was added to each well, and the plates were further incubated for 2 h to examine cell growth and survival. The absorbance at 450 nm wavelength was measured using a microplate reader. The assay was conducted in triplicate for each dilution.
smiles,measurement,setting,value
"Cc1c2oc3c(C)ccc(C(=O)N[C@@H]4C(=O)N[C@H](C(C)C)C(=O)N5CCC[C@H]5C(=O)N(C)CC(=O)N(C)[C@@H](C(C)C)C(=O)O[C@@H]4C)c3nc-2c(C(=O)N[C@@H]2C(=O)N[C@H](C(C)C)C(=O)N3CCC[C@H]3C(=O)N(C)CC(=O)N(C)[C@@H](C(C)C)C(=O)O[C@@H]2C)c(N)c1=O [Actinomycin D, actinomycin D] (I: T[dV]P[Sar][NMeV] / II: T[dV]P[Sar][NMeV]; ester I:1-I:C, II:1-II:C; linker I:N-II:N via Actinocin(9to1))",IC50 against Mycobacterium smegmatis,[1],0.78 ± 0.21 µg/mL
same,IC50 against Mycobacterium bovis var BCG,[2],0.8 ± 0.09 µg/mL
same,IC50,[3]; […],0.8 ± 0.12 µg/mL
same,IC50 against Bacillus subtilis,Bacillus subtilis,<0.3 µg/mL
same,IC50 against Staphylococcus aureus,Staphylococcus aureus,<0.3 µg/mL
same,IC50 against Salmonella enterica,Salmonella enterica,14.65 ± 1.22 µg/mL
same,IC50,"Salmonella enterica; Salmonella enterica, read-out: IC50 against Salmonella enterica",14.7 µg/mL
same,IC50,Shikimate kinase (MtSK),71.6 µM
same,Ki,Shikimate kinase (MtSK),94.9 µM
"Cc1c2oc3c(C)ccc(C(=O)N[C@@H]4C(=O)N[C@H](C(C)C)C(=O)N5CCC[C@H]5C(=O)N(C)CC(=O)N(C)[C@@H](C(C)C)C(=O)O[C@@H]4C)c3nc-2c(C(=O)N[C@@H]2C(=O)N[C@H](C(C)C)C(=O)N3CCC[C@H]3C(=O)N(C)CC(=O)N(C)[C@@H](C(C)C)C(=O)O[C@@H]2C)c(N)c1=O [F5(23), actinomycin D] (I: T[dV]P[Sar][NMeV] / II: T[dV]P[Sar][NMeV]; ester I:1-I:C, II:1-II:C; linker I:N-II:N via Actinocin(9to1))",IC50,[1],0.74 ± 0.03 µg/mL
same,increase in potency against M. bovis compared to actinomycin D,[2],10 fold
same,IC50,[2],0.02 ± 0.01 µg/mL
same,increase in potency against M. tuberculosis compared to actinomycin D,[3],10 fold
same,IC50,"[3]; growth inhibition, resazurin",0.07 ± 0.009 µg/mL
same,potency against M. tuberculosis compared to rifampicin,[3]; greater effect than rifampicin,~10 fold
same,IC50,Bacillus subtilis,< 0.3 µg/mL
same,IC50,Staphylococcus aureus,< 0.3 µg/mL
same,IC50 against Salmonella enterica,Salmonella enterica,no inhibitory effect
same,IC50,Shikimate kinase (MtSK); recombinant enzyme,32.8 µM
same,Ki,Shikimate kinase (MtSK); recombinant enzyme,46.2 µM
same,solubility in solvents,[4],"soluble in dichloromethane, chloroform, methanol, ethyl acetate and DMSO"
same,IC50 at 48 h,in vitro,> 80 µg/mL
CO[C@H]1/C=C/O[C@@]2(C)Oc3c(C)c(O)c4c(O)c(c(/C=N/N5CCN(C)CC5)c(O)c4c3C2=O)NC(=O)/C(C)=C\C=C\[C@H](C)[C@H](O)[C@@H](C)[C@@H](O)[C@@H](C)[C@H](OC(C)=O)[C@@H]1C [Rifampicin],IC50,[1],0.48 ± 0.07 µg/mL
same,IC50,[2],< 0.03 µg/mL
same,IC50 against Mycobacterium tuberculosis H37Rv,"[3]; growth inhibition, resazurin",<0.01 µg/mL
same,IC50 against Mycobacterium tuberculosis H37Rv,"[3]; growth inhibition, resazurin, listed as rifampicin",0.8 ± 0.12 µg/mL
same,IC50,Bacillus subtilis,< 0.3 µg/mL
same,IC50,Staphylococcus aureus,< 0.3 µg/mL

# Reference: paper PMC11336835 (Heliyon, 2024)
